Series [1] can be described thus: Inhibition of HCV JFH-1 envelope glycoprotein E2 interaction to cell surface protein CD81 in human Huh 7.5.1 cells after 2 days by firefly luciferase based luminescene assay. More on the design: species or system Hepatitis C virus JFH-1.
Series [2] relates to Hepatitis C virus. Put plainly: Antiviral activity against HCV JFH-1 infected in human Huh 7.5.1 cells after 2 days by firefly luciferase reporter gene assay. The class given is functional, organism-based, Hepacivirus hominis. Conditions: JFH-1, Huh-7.5.1, 48 h.
A short description of series [3]: Half life of the compound in presence of chymotrypsin at 20 uM by HPLC analysis. It is filed as physicochemical.
The subject of series [4] is Hepatitis C virus. Description: Inhibition of HCV 1b con1 envelope glycoprotein E2 interaction to cell surface protein CD81 in human Huh 7.5.1 cells after 2 days by firefly luciferase based luminescene assay. The class given is organism-based, Hepacivirus hominis. Conditions: Con1, Huh-7.5.1, 48 h.
Series [5] concerns Hepatitis C virus. Description: Antiviral activity against HCV at 50 uM. The class given is functional, Hepacivirus hominis.
The nature of series [6]: Cytotoxicity against human Huh7.5.1 cells at 1000 ug/ml after 48 hrs by WST-1 assay. It is filed as cell-based.
The subject of a further series is Hepacivirus hominis. Description: Inhibition of HCV envelope glycoprotein E2 interaction to human cell surface protein CD81.

Bridge positions count the residues as written; N and C are the ends. Square brackets hold non-standard residues; d marks the D form. Peptide text beside a SMILES is read from it. R8 = C=CCCCCCC[C@@](C)(N)C(=O)O; S8 = C=CCCCCCC[C@](C)(N)C(=O)O; R5 = C=CCCC[C@@](C)(N)C(=O)O; S5 = C=CCCC[C@](C)(N)C(=O)O

As to `CC[C@H](C)[C@@H]1NC(=O)[C@H](CC(N)=O)NC(=O)[C@@](C)(NC(=O)CNC(=O)[C@H](CO)NC(=O)[C@@H]2CCCN2C(C)=O)CCC/C=C\CCC[C@@](C)(C(=O)N[C@@H](CC(N)=O)C(=O)N[C@@H](CC(C)C)C(=O)N[C@@H](Cc2ccccc2)C(=O)N[C@@H](CCCCN)C(=O)N[C@@H](CCC(=O)O)C(=O)N[C@@H](CC(=O)O)C(N)=O)NC(=O)[C@H]([C@@H](C)CC)NC1=O` (Ac-PSG[S5]NII[S5]NLFKED-NH2; staple (Z) 4-8), the EC50 in series [1] is 21 µM; in the series with Hepatitis C virus [2], 40 µM; with Hepatitis C virus [4], 164 µM. Besides, the half-life at 20 µM in series [3] was above 3.33 h.

`O=C(OCc1ccccc1)c1ccccc1O` [BENZYL SALICYLATE] came in with an inhibition at 50 µM in the series with Hepatitis C virus [5] of 25%.

Take `CC[C@H](C)[C@H](NC(=O)[C@H](CC(N)=O)NC(=O)[C@H](CO)NC(=O)CNC(=O)[C@H](CO)NC(=O)[C@@H]1CCCN1C(C)=O)C(=O)N[C@H](C(=O)N[C@@]1(C)CCC/C=C\CCC[C@@](C)(C(=O)N[C@@H](CCC(=O)O)C(=O)N[C@@H](CC(=O)O)C(N)=O)NC(=O)[C@H](Cc2ccccc2)NC(=O)[C@H](CC(C)C)NC(=O)[C@H](CC(N)=O)NC1=O)[C@@H](C)CC` (Ac-PSGSNII[S5]NLF[S5]ED-NH2; staple (Z) 8-12): the EC50 in series [1] came to 313 µM; in the series with Hepatitis C virus [2], 181 µM; in the series with Hepatitis C virus [4], 280 µM. Further, the half-life at 20 µM in series [3] is above 3.33 h.

Turning to `CC[C@H](C)[C@@H]1NC(=O)[C@H]([C@@H](C)CC)NC(=O)[C@@](C)(NC(=O)[C@H](CO)NC(=O)CNC(=O)[C@H](CO)NC(=O)[C@@H]2CCCN2C(C)=O)CCCCCC/C=C/CCC[C@@](C)(C(=O)N[C@@H](CCC(=O)O)C(=O)N[C@@H](CC(=O)O)C(N)=O)NC(=O)[C@H](Cc2ccccc2)NC(=O)[C@H](CC(C)C)NC(=O)[C@H](CC(N)=O)NC(=O)[C@H](CO)NC1=O` (Ac-PSGS[S8]IISNLF[S5]ED-NH2; staple (E) 5-12), the EC50 in series [1] worked out at 78 µM; in the series on Hepatitis C virus [2] it was 357 µM; in the series on Hepatitis C virus [4] it was 310 µM. The half-life at 20 µM in series [3] was above 3.33 h.

Take Ac-PSGSNIISNLFKED-NH2: the Activity result in series [6] was “Non-toxic”. For the same molecule, the EC50 in series [1] came out at 320 µM; in the series with Hepatitis C virus [2] it was 244 µM; with Hepatitis C virus [4], 320 µM. The half-life at 20 µM in series [3] turned out to be 0.167 h.

On to `CC[C@H](C)[C@@H]1NC(=O)[C@@](C)(NC(=O)[C@H](CC(N)=O)NC(=O)[C@H](CO)NC(=O)CNC(=O)[C@H](CO)NC(=O)[C@@H]2CCCN2C(C)=O)CCC/C=C\CCC[C@@](C)(C(=O)N[C@@H](Cc2ccccc2)C(=O)N[C@@H](CCCCN)C(=O)N[C@@H](CCC(=O)O)C(=O)N[C@@H](CC(=O)O)C(N)=O)NC(=O)[C@H](CC(N)=O)NC(=O)[C@H](CO)NC1=O` (Ac-PSGSN[S5]ISN[S5]FKED-NH2; staple (Z) 6-10), for which the EC50 in series [1] came out at 200 µM; in the series with Hepatitis C virus [2] it was 240 µM; in the series with Hepatitis C virus [4], 316 µM. In addition, the half-life at 20 µM in series [3] was above 3.33 h.

`CCN(CCN(CC)C(=O)c1nc[nH]c1C(=O)N[C@@H](CC(C)C)C(=O)OCc1ccccc1)C(=O)c1nc[nH]c1C(=O)N[C@@H](CC(C)C)C(=O)OCc1ccccc1` returned an INH in the series with Hepacivirus hominis of 38 µM.

For the molecule `CC[C@H](C)[C@@H]1NC(=O)[C@H](CC(N)=O)NC(=O)[C@H](CO)NC(=O)[C@](C)(NC(=O)[C@H](CO)NC(=O)[C@@H]2CCCN2C(C)=O)CCCCCC/C=C\CCC[C@](C)(C(=O)N[C@@H](Cc2ccccc2)C(=O)N[C@@H](CCCCN)C(=O)N[C@@H](CCC(=O)O)C(=O)N[C@@H](CC(=O)O)C(N)=O)NC(=O)[C@H](CC(N)=O)NC(=O)[C@H](CO)NC(=O)[C@H]([C@@H](C)CC)NC1=O` (Ac-PS[R8]SNIISN[R5]FKED-NH2; staple (Z) 3-10), the Activity entry in series [6] is on record as “Non-toxic”. Besides, the EC50 amounted to 17 µM in series [1], 39 µM with Hepatitis C virus [2] and 35 µM in the series on Hepatitis C virus [4]. Also, the half-life at 20 µM in series [3] is above 3.33 h.

In the series with Hepacivirus hominis, `CCN(CCN(CC)C(=O)c1nc[nH]c1C(=O)N[C@H](C(=O)OCc1ccccc1)C(C)C)C(=O)c1nc[nH]c1C(=O)N[C@H](C(=O)OCc1ccccc1)C(C)C` yielded an INH of 53 µM.

The record behind these values is ChEMBL document CHEMBL2390948, “Stapled peptide-based membrane fusion inhibitors of hepatitis C virus” (Bioorg Med Chem, 2013).
